{
  "source": "patent US6011041A",
  "about": "“Use of anhydrovinblastine” (priority 1996, dated 2000)",
  "key": {"[1]": {"experiment": "acute (14 day) single dose toxicity in healthy male Nb rats (Table 2)", "type": "in vivo, rat", "settings": "rat, in vivo, ip; male Nb rats, single i.p. injection; read-out: subacutely toxic dosage (highest dose which allowed survival of all animals in a group, 3 out of 3)", "protocol": "(§1) Range-finding acute (14 day), single dose toxicity studies were performed in healthy male Nb rats in order to determine the maximum tolerated dose of vincristine sulfate, navelbine and AHVB when administered as a single, intraperitoneal injection in these rodents (see Table 2). To this end, healthy non-tumor bearing male Nb rats (weight range 333-399 grams) were divided in groups of 3 animals. Each group was used to test one drug at one dosage. The volumes within which the drugs were administered depended on the concentration of the drug solution (in saline) and the weight of the animals, and ranged from 0.1-1.0 ml. Saline was used as a control. The highest dose of each drug which allowed survival of all animals in a group (3 out of 3) was taken as the subacutely toxic dosage for the drug, i.e. 0.7 mg/kg for vincristine, 2.0 mg/kg for navelbine and 3.0 mg/kg for AHVB.\n(§2) The health of the animals was assessed by daily weight measurements in addition to behavioral indications of stress. Animals continued to be monitored throughout the complete 14 day study period. Animals were euthanized in the event of signs of severe stress or weight loss in excess of 20%. All animals were necropsied at the end of the study period or at the time of premature euthanasia."}, "healthy male Nb rats": {"tested_on": "healthy male Nb rats", "experiment": "acute (14 day) single dose toxicity in healthy male Nb rats (Table 2)", "type": "in vivo, rat", "settings": "single i.p. injection", "protocol": "as §1, §2"}, "[2]": {"experiment": "P388 tumour antitumor activity and maximum tolerated dose in BDF1 mice (FIGS. 6, 7)", "type": "in vivo", "settings": "mouse, in vivo, iv; BDF1 mice bearing P388 tumors, single i.v. injection", "protocol": "(§3) Antitumour studies in mice focused on the P388 leukemia model. […] This is an ascitic tumour model that was generated by intraperitoneal inoculation of 1×10^6 P388 cells (derived from culture, with an original cell line obtained from the NCI tumour repository) in BDF1 mice (Charles Rivers). One day after tumour cell inoculation, mice were treated with a single intravenous injection of drug. Animal weight was monitored daily and tumour progression was measured as an increase in animal weight and through estimation of survival time. Therapy was described by a decrease in tumour progression and an increase in survival time relative to an untreated control group. Initial studies established the maximum therapeutic dose for AHVB. Subsequently comparative studies with vincristine and navelbine were initiated where animals were treated with each drug at the maximum therapeutic dose.\n(§4) The in vivo antitumour activity of AHVB was compared to that of vincristine, navelbine in the BDF1-murine P388 model in the procedure as follows. P388 cells were derived from the ascities of previously injected female BDF1 mice (19-21 grams) P388 cells, from the NCI tumor repository were inoculated directly into mice. The cells arrive from NCI frozen in 1 ml aliquots. These samples were thawed rapidly at 37° C. and subsequently injected (within 1 hour) intraperitoneally into two mice, 0.5 ml per mouse. One week (7 days) after inoculation, the tumor cells were harvested by removing peritoneal fluid using a sterile syringe with a 22 gauge needle. The cells, pooled from two animals, were counted using a heamocytometer, diluted (RPMI media) to a concentration of 2×10^6 cells/ml and 0.5 ml was then re-injected into each of two BDF1 mice. Remaining cells were washed and placed into a DMSO containing media and frozen (in freezer packs that cool at a defined rate). This process was repeated weekly over a […]. Cells used for anti-tumor studies were collected from the third passage to the 20th passage. After the 20th passage the cells were no longer used for experimental studies. Newly established cells were derived from the frozen cells prepared as described above.\n(§5) Groups (five mice per group) of female BDFI mice (Charles Rivers, Canada) were injected (intraperitoneal) with 10^6 P388 cells (as described above). One day after tumor cell inoculation, the mice were given a bolus intravenous injection of indicated drug via the lateral tail vein. […] Following administration of the test articles, animals were weighed daily for fourteen days and monitored for signs of stress twice daily for the first 14 days (once daily on weekends) and once daily for the remainder of the study. Severely distressed animals were terminated by CO2 asphyxiation and the time of death was recorded to occur on the following day. […]"}, "P388 tumor": {"tested_on": "P388 tumor", "experiment": "P388 tumour antitumor activity and maximum tolerated dose in BDF1 mice (FIGS. 6, 7)", "type": "in vivo", "protocol": "as §3, §4, §5"}, "[3]": {"experiment": "weight loss / toxicity in BDF1 mice bearing P388 tumours (FIG. 4)", "type": "in vivo", "protocol": "Groups (five mice per group) of female BDFI mice (Charles Rivers, Canada) were injected (intraperitoneal) with 10^6 P388 cells (as described above). One day after tumor cell inoculation, the mice were given a bolus intravenous injection of indicated drug via the lateral tail vein. Control groups were injected with saline. Free drug samples were prepared on the day of injection such that the final concentrations were sufficient to deliver the indicated drug dose in a volume of 200 μl. All dilutions were made using 0.9% Sodium Chloride Injection USP. The mice were briefly (less than 30 sec.) restrained during intravenous injections. Dilation of the vein was achieved by holding the animals under a heat lamp for a period of between five and ten minutes. Following administration of the test articles, animals were weighed daily for fourteen days and monitored for signs of stress twice daily for the first 14 days (once daily on weekends) and once daily for the remainder of the study. Severely distressed animals were terminated by CO2 asphyxiation and the time of death was recorded to occur on the following day. Although complete dose titrations were completed for each drug, the data shown in FIG. 6 is that obtained after administration of the free drugs at their maximum tolerated dose. This was 3, 40 and 40 mg/kg for vincristine, navelbine and AHVB, respectively.\nAfter treating mice (bearing the P388 tumor) with a single dose of the indicated drug, animals were examined twice daily for the first 14 days (once daily on weekends). Weight gain in the control is an indication of tumor progression.\nThe studies were conducted as described for FIG. 6. The maximum tolerated dose of AHVB (40 mg/kg) as specified in these studies reflects a very acute (within 1 hour) toxic reaction that limits further dose excalatin for i.v. administration of AHVB."}, "[4]": {"settings": "cited from earlier work; for dose limiting toxicity: humans"}, "[5]": {"tested_on": "cells derived from human lung cancer", "settings": "cited from earlier work"}, "[6]": {"tested_on": "fast axoplasmic transport in nerve cells", "settings": "cited from earlier work"}, "human rhabdosarcomas": {"tested_on": "human rhabdosarcomas", "settings": "in vivo; cited from earlier work"}},
  "note": "Counter-ions that a name gives are not always drawn.",
  "data": [
    {"smiles": "CCC1=CC2CN(CCc3c([nH]c4ccccc34)C(C(=O)OC)(c3cc4c(cc3OC)N(C)C3C(O)(C(=O)OC)C(OC(C)=O)C5(CC)C=CCN6CCC43C65)C2)C1", "note": "(stereo not shown) [AHVB, 3',4'-anhydrovinblastine]", "values": [
      {"measurement": "MTD at 336 h", "setting": "[1]", "value": 3, "unit": "mg/kg"},
      {"measurement": "Mortality (surviving rats/injected rats)", "setting": "healthy male Nb rats; 3.0 mg/kg", "value": "3/3"},
      {"measurement": "Mortality (surviving rats/injected rats)", "setting": "healthy male Nb rats; 4.4 mg/kg", "value": "0/1"},
      {"measurement": "Mortality (surviving rats/injected rats)", "setting": "healthy male Nb rats; 10.0 mg/kg", "value": "0/3"},
      {"measurement": "MTD", "setting": "[2]", "value": 40, "unit": "mg/kg"},
      {"measurement": "times less toxic (on a weight basis) than vincristine", "setting": "P388 tumor; BDF1 mice bearing P388, single i.v.", "value": "approximately 10 times"},
      {"measurement": "antitumor activity (number of long term survivors, >60 days)", "setting": "P388 tumor; maximum tolerated dose, AHVB 40 mg/kg vs vincristine 3 mg/kg, single i.v.", "value": "significantly better than that observed for vincristine"},
      {"measurement": "in vivo antitumor efficacy relative to other vinca alkaloids such as vincristine and navelbine", "setting": "P388 tumor; overall conclusion", "value": "significant improvements in in vivo antitumor efficacy"},
      {"measurement": "time of very acute toxic reaction that limits dose escalation", "setting": "[3]; i.v., at maximum tolerated dose 40 mg/kg", "value": "≤ 1", "unit": "h"},
      {"measurement": "toxicity ranking (vinca alkaloid induced weight loss)", "setting": "[3]; single i.v. injection at maximum tolerated dose, AHVB 40 mg/kg", "value": "least toxic of the three drugs evaluated"}
    ]},
    {"smiles": "CCC1=C[C@@H]2CN(C1)Cc1c([nH]c3ccccc13)[C@@](C(=O)OC)(c1cc3c(cc1OC)N(C)[C@H]1[C@@](O)(C(=O)OC)[C@H](OC(C)=O)[C@]4(CC)C=CCN5CC[C@]31[C@@H]54)C2", "note": "[navelbine, 3',4'-didehydro-4'-deoxy-C'-norvincaleukoblastine-di-L-tartrate]", "values": [
      {"measurement": "MTD at 336 h", "setting": "[1]", "value": 2, "unit": "mg/kg"},
      {"measurement": "Mortality (surviving rats/injected rats)", "setting": "healthy male Nb rats; 2.0 mg/kg", "value": "3/3"},
      {"measurement": "Mortality (surviving rats/injected rats)", "setting": "healthy male Nb rats; 5.0 mg/kg", "value": "0/3"},
      {"measurement": "toxicity at maximum tolerated dose", "setting": "[3]; i.v., compared with acute toxicity of AHVB", "value": "more prolonged toxicity"},
      {"measurement": "dose limiting toxicity", "setting": "[4]", "value": "hematological toxicities and not neurological side effects"},
      {"measurement": "local side effects", "setting": "[4]; intravenous", "value": "phlebitia or extravasion injury as it is a moderate vasicant"},
      {"measurement": "incidence of constipation, vomiting, diarrhea, anorexia, and stomatitis", "setting": "[4]; patients, relative to nausea", "value": "slightly lesser fraction"},
      {"measurement": "incidence of mild to moderate nausea", "setting": "[4]; patients", "value": "roughly one-third"},
      {"measurement": "incidence of mild to moderate peripheral neuropathy (paresthesia and hypesthesia)", "setting": "[4]; single agent", "value": "10 % of patients"},
      {"measurement": "activity against cells derived from human lung cancer", "setting": "[5]", "value": "active"}
    ]},
    {"smiles": "CC[C@]1(O)C[C@H]2CN(CCc3c([nH]c4ccccc34)[C@@](C(=O)OC)(c3cc4c(cc3OC)N(C=O)[C@H]3[C@@](O)(C(=O)OC)[C@H](OC(C)=O)[C@]5(CC)C=CCN6CC[C@]43[C@@H]65)C2)C1", "note": "[vincristine, Sulfate of 22-oxovincaleukoblastine]", "values": [
      {"measurement": "MTD at 336 h", "setting": "[1]", "value": 0.7, "unit": "mg/kg"},
      {"measurement": "Mortality (surviving rats/injected rats)", "setting": "healthy male Nb rats; 0.5 mg/kg", "value": "3/3"},
      {"measurement": "Mortality (surviving rats/injected rats)", "setting": "healthy male Nb rats; 0.7 mg/kg", "value": "3/3"},
      {"measurement": "potency in blocking fast axoplasmic transport", "setting": "[6]", "value": "more potent than vinblastine or vindesine"},
      {"measurement": "activity in human rhabdosarcomas transplanted in nude mice", "setting": "human rhabdosarcomas", "value": "very effective"},
      {"measurement": "dose limiting toxicity", "setting": "[4]", "value": "peripheral neuropathy (in the absence of hematological toxicity)"},
      {"measurement": "other adverse reactions reported", "setting": "[4]; i.v.", "value": "abdominal cramps, ataxia, foot drop, weight loss, optic atrophy with blindness, transient cortical blindness, fever, cranial nerve manifestations, parehesia and numbness of the digits, polyuria, dysuria, oral ulceration, headache, vomiting, diarrhea, and intestinal necrosis and/or perforation"},
      {"measurement": "intrathecal administration outcome", "setting": "[4]; intrathecal", "value": "uniformly fatal"},
      {"measurement": "adverse reactions that can occur with single weekly doses", "setting": "[4]; single weekly doses, i.v.", "value": "leukopenia, neuritic pain, constipation, and difficulty in walking"},
      {"measurement": "most common adverse reaction", "setting": "[4]; single weekly doses", "value": "hair loss"},
      {"measurement": "most troublesome adverse reactions", "setting": "[4]; single weekly doses", "value": "neuromuscular in origin"}
    ]}
  ]
}
